From US20110251160A1 (priority 2008, published 2011)
Like-named read-outs stand apart in the source and are kept apart here.

How the values were obtained:
[1] = system: patients with atrial fibrillation at risk of stroke
Excerpt: Median follow-up was 2.0 years and the primary outcome was stroke or systemic embolism.
Patients were recruited from 951 clinical centers in 44 countries. In brief, patients were eligible if they had atrial fibrillation documented on electrocardiogram at screening or within 6 months; and at least one of the following: prior stroke or transient ischemic attack; left ventricular ejection fraction less than 40%; New York Heart Association heart failure symptoms of Class 2 or greater within 6 months; age at least 75 years; or age at least 65 years with diabetes mellitus, hypertension or coronary artery disease.
The time in therapeutic range was calculated by the method of Rosendaal (Rosendaal F R, et al., A method to determine the optimal intensity of oral anticoagulant therapy, Thromb Haemost, 1993, 69:236-239), excluding INRs from the first week and after discontinuations. […] Concomitant use of aspirin (less than 100 mg/day) or other antiplatelet agents was allowed.
Liver function testing was performed monthly during the first year of follow-up.
The primary study outcome was stroke or systemic embolism. The primary safety outcome was major hemorrhage. Secondary outcomes were stroke, systemic embolism and death. Other outcomes were myocardial infarction, pulmonary embolism, transient ischemic attacks, and hospitalizations. The primary net benefit-risk outcome was the composite of stroke, systemic embolism, pulmonary embolism, myocardial infarction, death or major hemorrhage. Stroke was defined as sudden onset of focal neurological deficit consistent with the territory of a major cerebral artery and categorized as ischemic, hemorrhagic or unspecified. Hemorrhagic transformation of ischemic stroke was not considered as hemorrhagic stroke. Intracranial hemorrhage included hemorrhagic stroke and sub-dural or sub-arachnoid hemorrhage. Systemic embolism was an acute vascular occlusion of an extremity or organ documented by imaging, surgery or autopsy. Major bleeding was defined as a reduction in hemoglobin level of at least […] or transfusion of at least 2 units of blood or symptomatic bleeding in a critical area or organ. Life-threatening bleeding was a subset of major bleeding that included fatal bleeding, symptomatic intracranial bleeding, bleeding with hemoglobin decrease of more than […] or requiring transfusion of more than 4 units of blood or requiring inotropic agents or necessitating surgery. All other bleeding was considered minor.
All primary and secondary outcome events were blindly and doubly adjudicated. An international team of adjudicators reviewed documents in local languages after blinding; or documents were translated by a independent group and blinded centrally. All transient ischemic attacks were reviewed to ensure that strokes had not been missed. To detect possible unreported events, symptom questionnaires were regularly administered to patients, and adverse events and hospitalization reports were scrutinized for unreported primary or secondary outcomes.
If maximum of the two p-values was greater than 0.025, the minimum of the two p-values must be less than 0.0125, one-sided, to claim statistical significance. All analyses were based on intention-to-treat.

[2] = system: AF patients; conditions: SPORTIF III (2003), cited from earlier work
[3] = system: AF patients; conditions: SPORTIF V (2005), cited from earlier work
[4] = system: AF patients; conditions: ACTIVE W (2006), warfarin arm; cited from earlier work
[5] = system: patients who have nonvalvular atrial fibrillation; conditions: VKAs, such as warfarin; cited from earlier work
[6] = ximelagatran 36 mg b.i.d. vs. warfarin

CC(=O)CC(c1ccccc1)c1c(O)c2ccccc2oc1=O (racemic) [Warfarin, 3-(α-acetonylbenzyl)4-hydroxycoumarin, reference compound]
ALT or AST > 3xULN ([1]; Warfarin arm): (2.1) %
ALT or AST > 3xULN with concurrent bilirubin > 2xULN ([1]; Warfarin arm): (0.4) %
Adverse Event: Arthralgia ([1]; Warfarin arm): (5.5) %
Adverse Event: Atrial fibrillation ([1]; Warfarin arm): (5.4) %
Adverse Event: Back pain ([1]; Warfarin arm): (5.5) %
Adverse Event: Chest pain ([1]; Warfarin arm): (5.7) %
Adverse Event: Cough ([1]; Warfarin arm): (5.8) %
Adverse Event: Diarrhea ([1]; Warfarin arm): (5.5) %
Adverse Event: Dizziness ([1]; Warfarin arm): (9.3) %
Adverse Event: Dyspepsia ([1]; Warfarin arm): (1.4) %
Adverse Event: Dyspnoea ([1]; Warfarin arm): (9.2) %
Adverse Event: Fatigue ([1]; Warfarin arm): (5.9) %
Adverse Event: Nasopharyngitis ([1]; Warfarin arm): (5.5) %
Adverse Event: Peripheral edema ([1]; Warfarin arm): (7.6) %
Adverse Event: Upper respiratory tract infection ([1]; Warfarin arm): (5.0) %
Adverse Event: Urinary tract infection ([1]; Warfarin arm): (5.3) %
All Death, Rate ([1]; Warfarin arm): 4.13 /100 Person Years
Any Major Bleeding, Rate ([1]; Warfarin arm): 3.46 /100 Person Years
Extracranial Bleeding, Rate ([1]; Warfarin arm): 2.73 /100 Person Years
First Hospitalization, Rate ([1]; Warfarin arm): 27.5 /100 Person Years
Intracranial Bleeding, Rate ([1]; Warfarin arm): 0.72 /100 Person Years
Life threatening bleeding, Rate ([1]; Warfarin arm): 1.80 /100 Person Years
Major gastro-intestinal Bleeding, Rate ([1]; Warfarin arm): 1.03 /100 Person Years
Major or Minor Bleeding, Rate ([1]; Warfarin arm): 23.92 /100 Person Years
Minor Bleeding, Rate ([1]; Warfarin arm): 21.03 /100 Person Years
Myocardial Infarction, Rate ([1]; Warfarin arm): 0.54 /100 Person Years
Non-disabling Stroke Modified Rankin 0-2, Rate ([1]; Warfarin arm): 0.58 /100 Person Years
Other Major bleeding, Rate ([1]; Warfarin arm): 1.80 /100 Person Years
Pulmonary embolism, Rate ([1]; Warfarin arm): 0.09 /100 Person Years
Reason for discontinuation: Gastrointestinal bleeding ([1]; Warfarin arm): (0.9) %
Reason for discontinuation: Gastrointestinal disorders ([1]; Warfarin arm): (0.8) %
Reason for discontinuation: Outcome event ([1]; Warfarin arm): (2.2) %
Reason for discontinuation: Patient decision ([1]; Warfarin arm): (6.2) %
Reason for discontinuation: SAE ([1]; Warfarin arm): (1.6) %
Stroke or systemic embolism, Rate ([1]; Warfarin arm): 1.70 /100 Person Years
Stroke, Hemorrhagic, Rate ([1]; Warfarin arm): 0.38 /100 Person Years
Stroke, Rate ([1]; Warfarin arm): 1.58 /100 Person Years
Study Drug Discontinuation At one year ([1]; Warfarin arm): (10) %
Study Drug Discontinuation At two years ([1]; Warfarin arm): (19) %
Vascular Death, Rate ([1]; Warfarin arm): 2.69 /100 Person Years
hepatobiliary disorders (AE) ([1]; Warfarin arm): (2.2) %
hepatobiliary disorders (SAE) ([1]; Warfarin arm): (0.4) %
Study Drug Discontinuation At one year ([1]; Warfarin arm, listed as warfarin): 10%
Stroke, systemic embolism, pulmonary embolism, myocardial infarction death or major bleed, Rate ([1]; net benefit, Warfarin arm): 7.99 /100 Person Years
Mortality rate, death from any cause ([1]; warfarin): 4.13 % per year
Rate of discontinuation at 2.5 years ([1]; warfarin): 19%
Rate of hemorrhagic stroke ([1]; warfarin): 0.38 % per year
Rate of major hemorrhage / major bleeding ([1]; warfarin): 3.46 % per year
Rate of myocardial infarction ([1]; warfarin): 0.54 % per year
Rate of net benefit-risk outcome (major vascular events, major bleeding and death) ([1]; warfarin): 7.99 % per year
Rate of the primary outcome, stroke or systemic embolism ([1]; warfarin): 1.70 % per year
Stroke and systemic embolism (per 100 patient years) [2, 6]: 2.3%
Myocardial Infarction ([2]; ximelagatran vs. warfarin): 0.6%
Stroke and systemic embolism (per 100 patient years) [3, 6]: 1.2%
Myocardial Infarction ([3]; ximelagatran vs. warfarin): 1.4%
Myocardial Infarction [4]: 0.6%
Stroke and systemic embolism (per 100 patient years) [4]: 1.5%
Reduction of the risk of stroke compared to control [5]: 64%
